The assay has as its target PKBα (Homo sapiens, UniProt P31749). Briefly: PKB kinase assay (P33-labeled ATP, peptide substrate, filter plate). The assay is classed as biochemical. As to conditions: PKBα enzyme (full length or kinase domain with pleckstrin domain deleted). An excerpt: The kinase assay for evaluating PKB activity comprises active PKB enzymes, a PKB specific substrate, and P^33-labeled ATP. […] The phosphorylated substrate was captured by a phosphocellulose membrane filter plate (MLLIPORE) and measured by a Wallac Microbeta liquid scintillation counter (Perkin Elmer).

PKBα, sequence (P31749 118-480 limits assumed): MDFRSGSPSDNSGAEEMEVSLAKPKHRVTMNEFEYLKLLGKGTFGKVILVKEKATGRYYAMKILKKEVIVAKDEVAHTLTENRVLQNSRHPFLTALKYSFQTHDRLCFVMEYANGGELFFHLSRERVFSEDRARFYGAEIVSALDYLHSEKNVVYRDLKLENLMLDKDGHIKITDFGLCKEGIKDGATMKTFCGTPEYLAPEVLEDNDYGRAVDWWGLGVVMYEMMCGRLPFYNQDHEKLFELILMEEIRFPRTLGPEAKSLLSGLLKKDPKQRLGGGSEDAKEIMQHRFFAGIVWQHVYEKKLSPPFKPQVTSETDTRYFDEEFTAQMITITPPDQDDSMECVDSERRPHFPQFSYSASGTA

For `N[C@H](CNc1ncc(-c2ccc3cnccc3c2)s1)[C@@H](CO)c1ccc(C(F)(F)F)cc1` [Example 159, (2S,3S)-3-amino-4-(5-(isoquinolin-6-yl)thiazol-2-ylamino)-2-(4-(trifluoromethyl)phenyl)butan-1-ol], the concentration for half-maximal inhibition (IC50) is under 50 nM.

Compound `N[C@H](CNc1ncc(-c2ccc3[nH]c(=O)oc3c2)s1)[C@@H](CO)c1ccc(C(F)(F)F)cc1` [Example 160, 6-(2-((2S,3S)-2-amino-4-hydroxy-3-(4-(trifluoromethyl)phenyl)butylamino)thiazol-5-yl)benzo[d]oxazol-2(3H)-one] gave an IC50 of under 50 nM.

For `N[C@H](CNc1ncc(-c2ccc3cnccc3c2)s1)Cc1cc(F)cc(F)c1` [Example 161, N—((S)-2-amino-3-(3,5-difluorophenyl)propyl)-5-(isoquinolin-6-yl)thiazol-2-amine], the IC50 is 50 to 1000 nM.

Take `Cn1c(=O)[nH]c2ccc(-c3cnc(NC[C@@H](N)Cc4cc(F)cc(F)c4)s3)cc21` [Example 162, 6-(2-((S)-2-amino-3-(3,5-difluorophenyl)propylamino)thiazol-5-yl)-1-methyl-1H-benzo[d]imidazol-2(3H)one]: the IC50 lay within 1000 to 10000 nM.

On to `N[C@H](CNc1ncc(-c2ccc3c(c2)CC(=O)N3)s1)Cc1cc(F)cc(F)c1` [Example 163, 5-(2-((S)-2-amino-3-(3,5-difluorophenyl)propylamino)thiazol-5-yl)indolin-2-one], for which the IC50 was in the range of 1000 to 10000 nM.

Regarding `N[C@H](CNc1ncc(-c2ccc3[nH]c(=O)oc3c2)s1)Cc1cc(F)cc(F)c1` [Example 164, 6-(2-((S)-2-amino-3-(3,5-difluorophenyl)propylamino)thiazol-5-yl)benzo[d]oxazol-2(3H)one], the IC50 was in the range of 50 to 1000 nM.

`NC(CNc1nc(Cl)c(-c2ccc3cnccc3c2)s1)Cc1ccc(C(F)(F)F)cc1` (stereo not drawn) [Example 165]: the IC50 lay within 50 to 1000 nM.

As for `N#Cc1ccc(-c2cnc(NC[C@@H](N)Cc3ccc(C(F)(F)F)cc3)s2)cc1F` [Example 166, 4-(2-((S)-2-amino-3-(4-(trifluoromethyl)phenyl)propylamino)thiazol-5-yl)-2-fluorobenzonitrile], the IC50 is 50 to 1000 nM.

In the case of `Cn1ncc2ccc(-c3cnc(NC[C@@H](N)Cc4ccc(C(F)(F)F)cc4)s3)cc21` [Example 167, N—((S)-2-amino-3-(4-(trifluoromethyl)phenyl)propyl)-5-(1-methyl-1H-indazol-6-yl)thiazol-2-amine], the IC50 was 1000 to 10000 nM.

`N[C@H](CNc1nc(C(F)(F)F)c(-c2ccc3cnccc3c2)s1)Cc1ccc(Cl)cc1` [Example 168] yielded an IC50 of 50 to 1000 nM.

In turn, `N[C@H](CNc1nc(C2CC2)c(-c2ccc3cnccc3c2)s1)Cc1ccc(C(F)(F)F)cc1` [Example 169] gave an IC50 of 50 to 1000 nM.

Take `N[C@H](CNc1ncc(-c2ccc3cnccc3c2)s1)Cc1ccc(C(F)(F)F)nc1` [Example 170]: the IC50 is under 50 nM.

For the compound `N[C@H](CNc1ncc(-c2ccc3c(c2)CC(=O)N3)s1)Cc1ccc(C(F)(F)F)nc1` [Example 171, 5-(2-((S)-2-amino-3-(6-(trifluoromethyl)pyridine-3-yl)propylamino)thiazol-5-yl)indolin-2-one], the IC50 was under 50 nM.

`N[C@H](CNc1ncc(-c2ccc3[nH]c(=O)oc3c2)s1)Cc1ccc(C(F)(F)F)nc1` [Example 172, 6-(2-((S)-2-amino-3-(6-(trifluoromethyl)pyridine-3-yl)propylamino)thiazol-5-yl)benzo[d]oxazol-2(3H)-one] displayed an IC50 of under 50 nM.

With `COc1cc(C[C@H](N)CNc2ncc(-c3ccc4cnccc4c3)s2)cnc1C(F)(F)F` [Example 173], the IC50 was under 50 nM.

On to `COc1cc(C[C@H](N)CNc2ncc(-c3ccc4c(c3)CC(=O)N4)s2)cnc1C(F)(F)F` [Example 174, 5-(2-((S)-2-amino-3-(5-methoxy-6-(trifluoromethyl)pyridin-3-yl)propylamino)thiazol-5-yl)indolin-2-one], for which the IC50 was in the range of 50 to 1000 nM.

In turn, `COc1cc(C[C@H](N)CNc2ncc(-c3ccc4[nH]c(=O)n(C)c4c3)s2)cnc1C(F)(F)F` [Example 175, 6-(2-((S)-2-amino-3-(5-methoxy-6-(trifluoromethyl)pyridin-3-yl)propylamino)thiazol-5-yl)-1-methyl-1H-benzo[d]imidazol-2(3H)-one] yielded an IC50 of under 50 nM.

In turn, `NC(CNc1ncc(-c2ccc3c(c2)CC(=O)N3)s1)Cc1ccc(C(F)(F)F)cc1F` (stereo not drawn) [Example 176, 5-(2-(-2-amino-3-(2-fluoro-4-(trifluoromethyl)phenyl)propylamino)thiazol-5-yl)indolin-2-one] came in with an IC50 of 50 to 1000 nM.

In turn, `NC(CNc1ncc(-c2ccc3cnccc3c2)s1)Cc1ccc(C(F)(F)F)cc1F` (stereo not drawn) [Example 177, N-(-2-amino-3-(2-fluoro-4-(trifluoromethyl)phenyl)propyl)-5-(isoquinolin-6-yl)thiazol-2-amine] had an IC50 of under 50 nM.

For the compound `NC(CNc1ncc(-c2ccc3[nH]c(=O)oc3c2)s1)Cc1ccc(C(F)(F)F)cc1F` (stereo not drawn) [Example 178, 6-(2-(-2-amino-3-(2-fluoro-4-(trifluoromethyl)phenyl)propylamino)thiazol-5-yl)benzo[d]oxazol-2(3H)-one], the IC50 is under 50 nM.

`NC(CNc1ncc(-c2ccc3c(c2)CC(=O)N3)s1)Cc1ccc(C(F)(F)F)c(F)c1` (stereo not drawn) [Example 179, 5-(2-(-2-amino-3-(3-fluoro-4-(trifluoromethyl)phenyl)propylamino)thiazol-5-yl)indolin-2-one] registered an IC50 of under 50 nM.

The compound `NC(CNc1ncc(-c2ccc3[nH]c(=O)oc3c2)s1)Cc1ccc(C(F)(F)F)c(F)c1` (stereo not drawn) [Example 181, 6-(2-(2-amino-3-(3-fluoro-4-(trifluoromethyl)phenyl)propylamino)thiazol-5-yl)benzo[d]oxazol-2(3H)-one] showed an IC50 of under 50 nM.

The compound `N[C@@H](CNc1ncc(-c2ccc3[nH]c(=O)oc3c2)s1)Cc1ccc(C(F)(F)F)c(F)c1` [Example 182, 6-(2-((R)-2-amino-3-(3-fluoro-4-(trifluoromethyl)phenyl)propylamino)thiazol-5-yl)benzo[d]oxazol-2(3H)-one] came in with an IC50 of 50 to 1000 nM.

For the compound `N[C@H](CNc1ncc(-c2ccc3[nH]c(=O)oc3c2)s1)Cc1ccc(C(F)(F)F)c(F)c1` [Example 183, 6-(2-((S)-2-amino-3-(3-fluoro-4-(trifluoromethyl)phenyl)propylamino)thiazol-5-yl)benzo[d]oxazol-2(3H)-one], the IC50 is under 50 nM.

In the case of `Cn1c(=O)[nH]c2ccc(-c3cnc(NC[C@@H](N)Cc4ccc(C(F)(F)F)c(F)c4)s3)cc21` [Example 184, 6-(2-((S)-2-amino-3-(3-fluoro-4-(trifluoromethyl)phenyl)propylamino)thiazol-5-yl)-1-methyl-1H-benzo[d]imidazol-2(3H)-one], the concentration for half-maximal inhibition (IC50) was under 50 nM.

The compound `N[C@H](CNc1ncc(-c2ccc3c(c2)CC(=O)N3)s1)Cc1ccc(C(F)(F)F)c(F)c1` [Example 185, 5-(2-((S)-2-amino-3-(3-fluoro-4-(trifluoromethyl)phenyl)propylamino)thiazol-5-yl)indolin-2-one] returned a concentration for half-maximal inhibition (IC50) of under 50 nM.

With `N[C@H](CNc1ncc(-c2ccc3[nH]ncc3c2)s1)Cc1ccc(C(F)(F)F)c(F)c1` [Example 186, N—((S)-2-amino-3-(3-fluoro-4-(trifluoromethyl)phenyl)propyl)-5-(1H-indazol-5-yl)thiazol-2-amine], the IC50 was under 50 nM.

In turn, `NC(CNc1ncc(-c2ccc3[nH]c(=O)oc3c2)s1)Cc1ccc(OC(F)(F)F)cc1` (stereo not drawn) [Example 187, 6-(2-(-2-amino-3-(4-(trifluoromethoxy)phenyl)propylamino)thiazol-5-yl)benzo[d]oxazol-2(3H)-one] had an IC50 of 50 to 1000 nM.

On to `NC(CNc1ncc(-c2ccc3c(c2)CC(=O)N3)s1)Cc1ccc(OC(F)(F)F)cc1` (stereo not drawn) [Example 188, 5-(2-(-2-amino-3-(4-(trifluoromethoxy)phenyl)propylamino)thiazol-5-yl)indolin-2-one], for which the IC50 was under 50 nM.

For `NC(CNc1ncc(-c2ccc3cnccc3c2)s1)Cc1ccc(OC(F)(F)F)cc1` (stereo not drawn) [Example 189, N-(-2-amino-3-(4-(trifluoromethoxy)phenyl)propyl)-5-(isoquinolin-6-yl)thiazol-2-amine], the IC50 was under 50 nM.

For the compound `NC(CNc1ncc(-c2ccc3[nH]ncc3c2)s1)Cc1ccc(C(F)(F)F)c(F)c1F` (stereo not drawn) [Example 190, N-(2-amino-3-(2,3-difluoro-4-(trifluoromethyl)phenyl)propyl)-5-(1H-indazol-5-yl)thiazol-2-amine], the IC50 is under 50 nM.

Regarding `Cn1c(=O)[nH]c2ccc(-c3cnc(NCC(N)Cc4ccc(C(F)(F)F)c(F)c4F)s3)cc21` (stereo not drawn) [Example 191, 6-(2-(2-amino-3-(2,3-difluoro-4-(trifluoromethyl)phenyl)propylamino)thiazol-5-yl)-1-methyl-1H-benzo[d]imidazol-2(3H)-one], the IC50 fell in the range of 50 to 1000 nM.

`N[C@H](CNc1ncc(-c2ccc3c(c2)CC(=O)N3)s1)Cc1ccc(O)cc1` [Example 192, 5-(2-((S)-2-amino-3-(4-hydroxyphenyl)propylamino)thiazol-5-yl)indolin-2-one] came in with an IC50 of 1000 to 10000 nM.

`N[C@H](CNc1ncc(-c2ccc3[nH]c(=O)[nH]c3c2)s1)Cc1ccc(C(F)(F)F)cc1` [Example 193, 5-(2-((S)-2-amino-3-(4-(trifluoromethyl)-phenyl)propylamino)thiazol-5-yl)-1H-benzo[d]imidazol-2(3H)-one] showed an IC50 of 50 to 1000 nM.

Compound `CN(C)C(=O)c1nc(NC[C@@H](N)Cc2ccc(C(F)(F)F)cc2)sc1-c1ccc2cnccc2c1` [Example 194, 2-((S)-2-amino-3-(4-(trifluoromethyl)phenyl)propylamino)-5-(isoquinolin-6-yl)-N,N-dimethylthiazole-4-carboxamide] yielded a half-inhibitory concentration (IC50) of 50 to 1000 nM.

As for `N[C@H](CNc1nc(C(=O)N2CCCC2)c(-c2ccc3cnccc3c2)s1)Cc1ccc(C(F)(F)F)cc1` [Example 195, (2-((S)-2-amino-3-(4-(trifluoromethyl)phenyl)propylamino)-5-(isoquinolin-6-yl)thiazol-4-yl)(pyrrolidin-1-yl)methanone], the IC50 lay within 1000 to 10000 nM.

(Values after patent US8084479B2, “Thiazole compounds and methods of use” (Amgen Inc., priority 2006, dated 2011).)
